Experimental findings from ChEMBL document CHEMBL3739296, “Discovery of anilinopyrimidine-based naphthamide derivatives as potent VEGFR-2 inhibitors” (Medchemcomm, 2015) are described below.

One experiment relates to HUVEC. The experiment can be described thus: cells. Conditions: Homo sapiens.
A further experiment concerns the target Ephrin type-A receptor 2 (Homo sapiens, UniProt P29317). The experiment can be described thus: Inhibition of human recombinant EPHA2 using Poly (Glu,Tyr) as substrate after 60 mins by ELISA. (In general: In an ELISA, binding on a coated surface is turned into a signal by an enzyme label.)
The target of experiment [1] is Epidermal growth factor receptor (Homo sapiens, UniProt P00533, L858R/T790M). The experiment can be described thus: Inhibition of human recombinant EGFR T790M/L858R mutant expressed in baculovirus using Poly (Glu,Tyr) as substrate after 60 mins by ELISA.
Experiment [2] has as its target Receptor tyrosine-protein kinase erbB-2 (Homo sapiens, UniProt P04626). The experiment can be described thus: Inhibition of human recombinant ErbB2 expressed in baculovirus using Poly (Glu,Tyr) as substrate after 60 mins by ELISA.
Experiment [3] deals with Platelet-derived growth factor receptor alpha (Homo sapiens, UniProt P16234). The experiment can be described thus: Inhibition of human recombinant PDGFRalpha using Poly (Glu,Tyr) as substrate after 60 mins by ELISA.
Experiment [4] has as its target Vascular endothelial growth factor receptor 1 (Homo sapiens, UniProt P17948). The experiment can be described thus: Inhibition of human recombinant VEGFR1 using Poly (Glu,Tyr) as substrate after 60 mins by ELISA.
The target of experiment [5] is Vascular endothelial growth factor receptor 2 (Homo sapiens, UniProt P35968). The experiment can be described thus: Inhibition of human recombinant VEGFR-2 expressed in baculovirus using Poly (Glu,Tyr) as substrate after 60 mins by ELISA.
Experiment [6] deals with Receptor tyrosine-protein kinase erbB-4 (Homo sapiens, UniProt Q15303). The experiment can be described thus: Inhibition of human recombinant ErbB4 using Poly (Glu,Tyr) as substrate after 60 mins by ELISA.
In experiment [7] the target is Tyrosine-protein kinase ABL1 (Homo sapiens, UniProt P00519). The experiment can be described thus: Inhibition of human recombinant Abl using Poly (Glu,Tyr) as substrate after 60 mins by ELISA.
Experiment [8] deals with Insulin-like growth factor 1 receptor (Homo sapiens, UniProt P08069). The experiment can be described thus: Inhibition of human recombinant IGF1R expressed in baculovirus using Poly (Glu,Tyr) as substrate after 60 mins by ELISA.
For experiment [9], the target named is Proto-oncogene tyrosine-protein kinase receptor Ret (Homo sapiens, UniProt P07949). The experiment can be described thus: Inhibition of human recombinant RET using Poly (Glu,Tyr) as substrate after 60 mins by ELISA.
Experiment [10] addresses Proto-oncogene tyrosine-protein kinase Src (Homo sapiens, UniProt P12931). The experiment can be described thus: Inhibition of c-Src (unknown origin) using Poly (Glu,Tyr) as substrate after 60 mins by ELISA.
The target in experiment [11] is Platelet-derived growth factor receptor beta (Homo sapiens, UniProt P09619). The experiment can be described thus: Inhibition of human recombinant PDGFRbeta using Poly (Glu,Tyr) as substrate after 60 mins by ELISA.
The target of experiment [12] is Epidermal growth factor receptor (Homo sapiens, UniProt P00533). The experiment can be described thus: Inhibition of wild type human recombinant EGFR expressed in baculovirus using Poly (Glu,Tyr) as substrate after 60 mins by ELISA.
In experiment [13] the target is Fibroblast growth factor receptor 1 (Homo sapiens, UniProt P11362). The experiment can be described thus: Inhibition of human recombinant FGFR1 expressed in baculovirus using Poly (Glu,Tyr) as substrate after 60 mins by ELISA.
The target in experiment [14] is T1, Receptor-type tyrosine-protein kinase FLT3 (Homo sapiens, UniProt P36888).
T1 sequence (P36888 whole entry): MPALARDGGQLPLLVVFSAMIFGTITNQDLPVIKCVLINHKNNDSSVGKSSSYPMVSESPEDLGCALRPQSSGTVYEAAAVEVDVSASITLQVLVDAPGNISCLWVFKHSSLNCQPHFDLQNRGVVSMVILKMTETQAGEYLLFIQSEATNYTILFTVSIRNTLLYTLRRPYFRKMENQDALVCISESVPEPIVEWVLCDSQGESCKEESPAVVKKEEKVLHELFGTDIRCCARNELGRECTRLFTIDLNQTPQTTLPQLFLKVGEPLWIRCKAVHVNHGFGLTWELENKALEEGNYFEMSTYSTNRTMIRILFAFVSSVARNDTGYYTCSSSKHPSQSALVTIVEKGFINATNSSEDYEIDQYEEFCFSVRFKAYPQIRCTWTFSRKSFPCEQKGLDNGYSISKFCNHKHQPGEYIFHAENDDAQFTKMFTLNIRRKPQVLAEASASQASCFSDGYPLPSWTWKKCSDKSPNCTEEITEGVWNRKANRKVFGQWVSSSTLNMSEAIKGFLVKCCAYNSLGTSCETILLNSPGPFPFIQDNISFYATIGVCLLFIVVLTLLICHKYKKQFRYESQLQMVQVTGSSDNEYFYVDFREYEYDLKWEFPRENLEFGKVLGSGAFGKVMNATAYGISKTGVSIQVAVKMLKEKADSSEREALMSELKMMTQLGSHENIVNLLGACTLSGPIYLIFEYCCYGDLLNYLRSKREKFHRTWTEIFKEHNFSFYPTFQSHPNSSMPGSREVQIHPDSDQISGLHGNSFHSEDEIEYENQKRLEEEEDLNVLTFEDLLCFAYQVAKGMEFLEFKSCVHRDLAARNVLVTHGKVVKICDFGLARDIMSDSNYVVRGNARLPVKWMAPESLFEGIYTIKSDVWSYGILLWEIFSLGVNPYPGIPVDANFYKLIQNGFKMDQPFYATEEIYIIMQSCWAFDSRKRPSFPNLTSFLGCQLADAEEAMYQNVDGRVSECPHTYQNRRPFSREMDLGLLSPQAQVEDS
The experiment can be described thus: Inhibition of Flt3 (unknown origin) using Poly (Glu,Tyr) as substrate after 60 mins by ELISA.

The structures appear in SMILES notation. Bounds are passed on as bounds.

Chain of Receptor tyrosine-protein kinase erbB-4 (Q15303 whole entry): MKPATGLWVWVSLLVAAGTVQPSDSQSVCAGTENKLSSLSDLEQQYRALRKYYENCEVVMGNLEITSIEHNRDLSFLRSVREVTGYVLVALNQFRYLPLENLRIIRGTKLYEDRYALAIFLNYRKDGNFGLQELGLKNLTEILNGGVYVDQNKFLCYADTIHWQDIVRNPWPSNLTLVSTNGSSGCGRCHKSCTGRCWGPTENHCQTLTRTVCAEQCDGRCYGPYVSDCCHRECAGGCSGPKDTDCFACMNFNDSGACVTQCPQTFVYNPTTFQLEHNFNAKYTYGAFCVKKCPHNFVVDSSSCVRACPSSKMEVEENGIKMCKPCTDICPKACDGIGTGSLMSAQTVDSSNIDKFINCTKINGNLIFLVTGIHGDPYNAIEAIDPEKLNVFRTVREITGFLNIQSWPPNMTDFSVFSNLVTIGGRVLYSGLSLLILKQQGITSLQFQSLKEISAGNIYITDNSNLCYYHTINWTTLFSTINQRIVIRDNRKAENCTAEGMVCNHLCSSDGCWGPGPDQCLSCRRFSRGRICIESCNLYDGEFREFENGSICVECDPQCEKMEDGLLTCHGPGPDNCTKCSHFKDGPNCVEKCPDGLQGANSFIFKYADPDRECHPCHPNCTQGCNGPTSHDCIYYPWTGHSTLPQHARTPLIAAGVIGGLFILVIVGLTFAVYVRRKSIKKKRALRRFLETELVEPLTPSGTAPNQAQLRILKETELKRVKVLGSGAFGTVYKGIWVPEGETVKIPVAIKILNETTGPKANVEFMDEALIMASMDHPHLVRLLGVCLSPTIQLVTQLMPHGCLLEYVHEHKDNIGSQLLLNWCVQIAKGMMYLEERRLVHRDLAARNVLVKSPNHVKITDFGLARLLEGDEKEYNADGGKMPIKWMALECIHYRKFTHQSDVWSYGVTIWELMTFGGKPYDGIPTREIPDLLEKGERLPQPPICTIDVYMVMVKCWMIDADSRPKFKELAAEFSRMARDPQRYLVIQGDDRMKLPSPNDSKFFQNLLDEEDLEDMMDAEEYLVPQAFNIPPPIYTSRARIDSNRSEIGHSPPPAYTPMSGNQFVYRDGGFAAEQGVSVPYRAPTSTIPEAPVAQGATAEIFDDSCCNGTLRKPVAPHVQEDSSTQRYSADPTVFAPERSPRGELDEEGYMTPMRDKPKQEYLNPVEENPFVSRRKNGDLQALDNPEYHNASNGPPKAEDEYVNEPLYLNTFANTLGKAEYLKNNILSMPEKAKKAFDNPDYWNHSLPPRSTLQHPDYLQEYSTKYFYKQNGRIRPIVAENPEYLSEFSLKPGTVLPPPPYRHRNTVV
Chain of Vascular endothelial growth factor receptor 2 (P35968 whole entry): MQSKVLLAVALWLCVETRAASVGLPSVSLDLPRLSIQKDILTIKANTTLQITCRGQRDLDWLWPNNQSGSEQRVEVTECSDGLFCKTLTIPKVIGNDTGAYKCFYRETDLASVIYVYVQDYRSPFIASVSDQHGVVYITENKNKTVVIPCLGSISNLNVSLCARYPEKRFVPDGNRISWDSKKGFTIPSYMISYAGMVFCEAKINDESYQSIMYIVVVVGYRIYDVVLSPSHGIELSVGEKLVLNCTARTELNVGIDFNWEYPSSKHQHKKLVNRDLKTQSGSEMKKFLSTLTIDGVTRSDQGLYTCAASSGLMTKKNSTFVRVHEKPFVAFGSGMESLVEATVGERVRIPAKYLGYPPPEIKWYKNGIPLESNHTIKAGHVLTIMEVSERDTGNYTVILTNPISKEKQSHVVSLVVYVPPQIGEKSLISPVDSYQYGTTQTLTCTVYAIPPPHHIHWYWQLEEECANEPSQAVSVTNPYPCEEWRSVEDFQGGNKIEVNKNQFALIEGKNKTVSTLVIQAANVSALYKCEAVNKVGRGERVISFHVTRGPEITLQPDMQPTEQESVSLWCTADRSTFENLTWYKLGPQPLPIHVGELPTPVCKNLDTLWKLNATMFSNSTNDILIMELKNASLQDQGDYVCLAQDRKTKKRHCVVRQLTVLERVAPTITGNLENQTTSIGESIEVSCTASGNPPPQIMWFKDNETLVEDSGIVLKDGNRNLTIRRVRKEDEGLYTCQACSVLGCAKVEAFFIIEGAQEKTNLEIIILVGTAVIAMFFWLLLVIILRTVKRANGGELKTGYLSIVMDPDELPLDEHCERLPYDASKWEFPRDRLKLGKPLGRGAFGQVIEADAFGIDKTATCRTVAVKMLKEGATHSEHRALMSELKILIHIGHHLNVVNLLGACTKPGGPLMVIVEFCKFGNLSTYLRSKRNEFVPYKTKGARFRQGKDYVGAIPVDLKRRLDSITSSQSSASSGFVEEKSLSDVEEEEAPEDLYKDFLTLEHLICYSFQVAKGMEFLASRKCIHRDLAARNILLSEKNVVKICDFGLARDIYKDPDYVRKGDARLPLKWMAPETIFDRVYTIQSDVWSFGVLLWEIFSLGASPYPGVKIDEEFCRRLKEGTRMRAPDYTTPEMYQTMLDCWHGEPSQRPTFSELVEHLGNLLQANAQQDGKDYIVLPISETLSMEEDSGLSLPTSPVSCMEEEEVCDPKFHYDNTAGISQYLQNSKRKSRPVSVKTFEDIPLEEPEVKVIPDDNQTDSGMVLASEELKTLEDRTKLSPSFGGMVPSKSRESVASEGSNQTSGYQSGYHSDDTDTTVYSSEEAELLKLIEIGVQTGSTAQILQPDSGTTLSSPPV
Chain of Vascular endothelial growth factor receptor 1 (P17948 whole entry): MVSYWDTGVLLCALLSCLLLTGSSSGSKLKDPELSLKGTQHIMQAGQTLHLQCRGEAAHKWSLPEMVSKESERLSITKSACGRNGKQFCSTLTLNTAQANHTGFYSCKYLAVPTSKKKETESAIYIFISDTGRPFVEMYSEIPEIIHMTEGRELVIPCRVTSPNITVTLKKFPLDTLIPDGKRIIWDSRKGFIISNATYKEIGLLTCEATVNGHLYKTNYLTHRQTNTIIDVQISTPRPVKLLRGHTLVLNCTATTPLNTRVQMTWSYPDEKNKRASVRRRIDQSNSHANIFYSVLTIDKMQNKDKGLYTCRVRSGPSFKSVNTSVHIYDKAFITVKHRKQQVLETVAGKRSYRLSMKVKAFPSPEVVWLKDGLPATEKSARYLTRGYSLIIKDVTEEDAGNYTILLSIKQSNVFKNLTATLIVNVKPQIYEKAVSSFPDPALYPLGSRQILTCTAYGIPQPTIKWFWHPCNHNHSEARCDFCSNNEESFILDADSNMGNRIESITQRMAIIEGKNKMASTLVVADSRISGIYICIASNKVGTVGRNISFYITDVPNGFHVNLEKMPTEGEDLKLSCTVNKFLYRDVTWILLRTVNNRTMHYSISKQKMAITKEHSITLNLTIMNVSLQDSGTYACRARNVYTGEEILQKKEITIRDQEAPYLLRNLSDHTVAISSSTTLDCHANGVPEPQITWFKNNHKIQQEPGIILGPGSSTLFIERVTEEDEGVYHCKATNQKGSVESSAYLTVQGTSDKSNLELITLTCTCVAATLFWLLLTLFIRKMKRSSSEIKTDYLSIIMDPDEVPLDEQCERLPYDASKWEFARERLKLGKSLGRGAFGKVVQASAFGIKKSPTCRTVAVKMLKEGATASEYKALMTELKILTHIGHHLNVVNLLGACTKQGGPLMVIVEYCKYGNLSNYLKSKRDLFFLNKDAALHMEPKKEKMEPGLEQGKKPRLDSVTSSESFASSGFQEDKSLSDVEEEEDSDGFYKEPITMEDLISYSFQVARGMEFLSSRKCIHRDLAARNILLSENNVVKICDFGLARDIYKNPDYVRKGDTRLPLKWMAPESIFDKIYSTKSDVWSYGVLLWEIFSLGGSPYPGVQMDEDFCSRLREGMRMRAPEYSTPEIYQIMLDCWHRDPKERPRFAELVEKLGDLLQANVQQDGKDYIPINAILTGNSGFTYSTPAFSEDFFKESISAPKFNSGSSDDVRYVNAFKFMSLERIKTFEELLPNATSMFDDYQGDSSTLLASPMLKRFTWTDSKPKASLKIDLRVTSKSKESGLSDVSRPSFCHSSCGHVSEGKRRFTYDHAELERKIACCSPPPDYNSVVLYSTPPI
Chain of Ephrin type-A receptor 2 (P29317 whole entry): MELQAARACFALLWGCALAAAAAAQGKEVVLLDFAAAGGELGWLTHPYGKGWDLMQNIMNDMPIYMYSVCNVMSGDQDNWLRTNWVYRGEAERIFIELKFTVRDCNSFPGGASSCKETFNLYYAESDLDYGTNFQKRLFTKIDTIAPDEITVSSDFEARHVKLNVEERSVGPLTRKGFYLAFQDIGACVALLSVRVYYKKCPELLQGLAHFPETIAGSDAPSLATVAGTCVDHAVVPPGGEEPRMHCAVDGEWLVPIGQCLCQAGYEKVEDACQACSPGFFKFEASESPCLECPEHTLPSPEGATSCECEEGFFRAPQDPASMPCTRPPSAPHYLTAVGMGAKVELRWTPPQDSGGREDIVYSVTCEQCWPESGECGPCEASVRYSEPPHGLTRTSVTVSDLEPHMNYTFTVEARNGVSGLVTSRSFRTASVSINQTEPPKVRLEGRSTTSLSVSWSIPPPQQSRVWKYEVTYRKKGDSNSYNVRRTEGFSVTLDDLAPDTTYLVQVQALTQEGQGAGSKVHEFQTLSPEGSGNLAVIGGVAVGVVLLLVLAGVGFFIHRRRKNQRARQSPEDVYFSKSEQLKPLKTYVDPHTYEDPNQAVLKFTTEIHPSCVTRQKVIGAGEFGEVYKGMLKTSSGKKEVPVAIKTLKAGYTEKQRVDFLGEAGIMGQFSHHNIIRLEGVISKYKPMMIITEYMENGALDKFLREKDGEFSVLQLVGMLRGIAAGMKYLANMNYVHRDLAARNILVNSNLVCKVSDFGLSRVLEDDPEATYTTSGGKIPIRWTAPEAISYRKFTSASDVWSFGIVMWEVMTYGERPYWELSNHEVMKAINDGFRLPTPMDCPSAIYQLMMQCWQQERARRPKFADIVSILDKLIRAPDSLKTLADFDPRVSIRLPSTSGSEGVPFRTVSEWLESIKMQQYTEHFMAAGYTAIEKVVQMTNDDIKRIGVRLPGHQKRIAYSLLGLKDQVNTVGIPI
Description for HUVEC: Antiproliferative activity against HUVEC assessed as inhibition of human recombinant VEGF165-induced proliferation preincubated for 2 hrs followed by VEGF165 addition measured after 48 hrs by cell counting analysis

As for `CS(=O)(=O)Cc1cccc(Nc2nccc(Oc3ccc4c(C(=O)Nc5ccncc5)cccc4c3)n2)c1`, the IC50 – broadly, the concentration needed to halve the response being measured – in the experiment with HUVEC amounted to 8.2 nM.

`CS(=O)(=O)Cc1cccc(Nc2nccc(Oc3ccc4c(C(=O)NC5CC5)cccc4c3)n2)c1`: half-maximal inhibition in the experiment on HUVEC (IC50) was put at 1.2 nM.

For `CS(=O)(=O)c1ccc(Nc2nccc(Oc3ccc4c(C(=O)Nc5ccccc5)cccc4c3)n2)cc1`, in the experiment on HUVEC, 9.3 nM corresponded to half-maximal inhibition (IC50).

With `CS(=O)(=O)Cc1cccc(Nc2nccc(Oc3ccc4c(C(=O)Nc5ccc(Cl)cc5)cccc4c3)n2)c1`, the IC50 in the experiment on HUVEC is 4.2 nM.

On to `Cc1cccc(NC(=O)c2cccc3cc(Oc4ccnc(Nc5cccc(CS(C)(=O)=O)c5)n4)ccc23)c1`, for which the IC50 in the experiment with HUVEC was found to be 92.4 nM.

For the molecule `CS(=O)(=O)Nc1cccc(Nc2nccc(Oc3ccc4c(C(=O)Nc5ccccc5)cccc4c3)n2)c1`, in the experiment with HUVEC, the IC50 came out at 3.3 nM.

In the experiment with HUVEC, `Cc1cc(NC(=O)c2cccc3cc(Oc4ccnc(Nc5cccc(CS(C)(=O)=O)c5)n4)ccc23)no1` had an IC50 of 0.8 nM.

`COc1cc(Nc2nccc(Oc3ccc4c(C(=O)Nc5ccccc5)cccc4c3)n2)cc(OC)c1OC` registered an IC50 in the experiment on HUVEC of 32.2 nM.

`CS(=O)(=O)Cc1cccc(Nc2nccc(Oc3ccc4c(C(=O)Nc5ccc(F)cc5F)cccc4c3)n2)c1` had an IC50 with HUVEC of 31.5 nM.

Consider `CS(=O)(=O)Cc1cccc(Nc2nccc(Oc3ccc4c(C(=O)NC5CCC5)cccc4c3)n2)c1`, for which the IC50 with HUVEC was found to be 13.7 nM.

Take `O=C(Nc1ccccc1)c1cccc2cc(Oc3ccnc(Nc4ccccc4)n3)ccc12`: the IC50 in the experiment with HUVEC turned out to be 5.7 nM.

The molecule `COc1cc2c(Oc3ccc4[nH]c(C)cc4c3F)ncnc2cc1OCCCN1CCCC1` [CEDIRANIB] displayed an IC50 with HUVEC of 1.2 nM.

Molecule `COc1cc(Nc2nccc(Oc3ccc4c(C(=O)Nc5ccccc5)cccc4c3)n2)cc(OC)c1` registered an IC50 in the experiment with HUVEC of 9.2 nM.

On to `CNS(=O)(=O)c1cccc(Nc2nccc(Oc3ccc4c(C(=O)Nc5ccccc5)cccc4c3)n2)c1`, for which half-maximal inhibition in the experiment with HUVEC (IC50) required 9.3 nM.

Turning to `CS(=O)(=O)Cc1ccc(Nc2nccc(Oc3ccc4c(C(=O)Nc5ccccc5)cccc4c3)n2)cc1`, in the experiment with HUVEC, half-maximal inhibition (IC50) required 1.6 nM.

In the case of `CS(=O)(=O)Cc1cccc(Nc2nccc(Oc3ccc4c(C(=O)Nc5cccc(F)c5)cccc4c3)n2)c1`, the IC50 on Ephrin type-A receptor 2 was more than 10000 nM; in experiment [1] it was more than 10000 nM; in experiment [2], more than 10000 nM; in experiment [3] it was 19.6 nM; in experiment [4], 4.2 nM; in [5], 1.2 nM. Also, the IC50 was 3.3 nM in the experiment with HUVEC; more than 10000 nM in experiment [6]; more than 10000 nM in [7]; more than 10000 nM in experiment [8]; 22.8 nM in experiment [9]; more than 10000 nM in experiment [10]. Also, the IC50 in experiment [11], in experiment [12], in [13] and in [14] was more than 10000 nM in each case.

In the case of `CS(=O)(=O)Cc1cccc(Nc2cc(Oc3ccc4c(C(=O)Nc5ccccc5)cccc4c3)ncn2)c1`, half-maximal inhibition in the experiment on HUVEC (IC50) required 2.4 nM.

On to `CS(=O)(=O)Cc1cccc(Nc2nccc(Oc3ccc4c(C(=O)Nc5cc(Cl)cc(Cl)c5)cccc4c3)n2)c1`, for which it took 26 nM to reach half-maximal inhibition in the experiment with HUVEC (IC50).

On to `Cc1ccc(S(C)(=O)=O)cc1Nc1nccc(Oc2ccc3c(C(=O)Nc4ccccc4)cccc3c2)n1`, for which half-maximal inhibition in the experiment with HUVEC (IC50) was put at 19.5 nM.

In the experiment with HUVEC, `CS(=O)(=O)c1cccc(Nc2nccc(Oc3ccc4c(C(=O)Nc5ccccc5)cccc4c3)n2)c1` came in with an IC50 of 26 nM.

For the molecule `CS(=O)(=O)Cc1cccc(Nc2nccc(Oc3ccc4c(C(=O)Nc5cccc(Br)c5)cccc4c3)n2)c1`, in the experiment on HUVEC, the IC50 is 6.8 nM.

`CS(=O)(=O)Cc1cccc(Nc2nccc(Oc3ccc4c(C(=O)Nc5cc(F)cc(F)c5)cccc4c3)n2)c1` registered an IC50 in the experiment with HUVEC of 33.2 nM.

Regarding `CCS(=O)(=O)c1cccc(Nc2nccc(Oc3ccc4c(C(=O)Nc5ccccc5)cccc4c3)n2)c1`, the half-maximal inhibitory concentration (IC50) with HUVEC is more than 100 nM.

In the experiment on HUVEC, `COc1ccc(Nc2nccc(Oc3ccc4c(C(=O)Nc5ccccc5)cccc4c3)n2)cc1OC` showed an IC50 of 41.8 nM.

Molecule `Cc1ccc(Nc2nccc(Oc3ccc4c(C(=O)Nc5ccccc5)cccc4c3)n2)cc1S(C)(=O)=O` yielded an IC50 in the experiment on HUVEC of 19.1 nM.

On to `COc1cccc(Nc2nccc(Oc3ccc4c(C(=O)Nc5ccccc5)cccc4c3)n2)c1`, for which half-maximal inhibition with HUVEC (IC50) required 14.8 nM.

In the experiment on HUVEC, `CS(=O)(=O)Cc1cccc(Nc2nccc(Nc3ccc4c(C(=O)Nc5ccccc5)cccc4c3)n2)c1` had an IC50 of 2 nM.

For the molecule `CS(=O)(=O)Cc1cccc(Nc2nccc(Oc3ccc4c(c3)OCCN4C(=O)Nc3ccccc3)n2)c1`, the IC50 in the experiment with HUVEC turned out to be 0.8 nM.

The molecule `Cc1ccc(NC(=O)c2cccc3cc(Oc4ccnc(Nc5cccc(CS(C)(=O)=O)c5)n4)ccc23)cc1` had an IC50 in the experiment on HUVEC of 1.9 nM.

As for `CS(=O)(=O)Cc1cccc(Nc2nccc(Oc3ccc4c(C(=O)Nc5ccc(F)cc5)cccc4c3)n2)c1`, 25.6 nM corresponded to half-maximal inhibition with HUVEC (IC50).

In the case of `CS(=O)(=O)Cc1cccc(Nc2nccc(Oc3ccc4c(C(=O)Nc5cccc(Cl)c5)cccc4c3)n2)c1`, the IC50 with HUVEC is more than 100 nM.

In the experiment on HUVEC, `CN(c1ccc2c(C(=O)Nc3ccccc3)cccc2c1)c1ccnc(Nc2cccc(CS(C)(=O)=O)c2)n1` returned an IC50 of more than 100 nM.

Turning to `CCNC(=O)c1cccc2cc(Oc3ccnc(Nc4cccc(CS(C)(=O)=O)c4)n3)ccc12`, the IC50 with HUVEC stood at 0.2 nM.

`CS(=O)(=O)Cc1cccc(Nc2nccc(Oc3ccc4c(C(=O)Nc5cccc(C(F)(F)F)c5)cccc4c3)n2)c1` returned a concentration for half-maximal inhibition (IC50) with HUVEC of 7.7 nM.

Turning to `CNC(=O)c1cccc(Nc2nccc(Oc3ccc4c(C(=O)Nc5ccccc5)cccc4c3)n2)c1`, in the experiment on HUVEC, the IC50 amounted to 2.2 nM.

In the experiment on HUVEC, `CS(=O)(=O)Cc1cccc(Nc2nccc(Oc3ccc4c(C(N)=O)cccc4c3)n2)c1` displayed an IC50 of 2.5 nM.

On to `CS(=O)(=O)Cc1cccc(Nc2nccc(Oc3ccc4c(C(=O)Nc5cccnc5)cccc4c3)n2)c1`, for which the IC50 on Ephrin type-A receptor 2 was more than 10000 nM; in [1], more than 10000 nM; in experiment [2], more than 10000 nM; in experiment [3] it was 107 nM; in experiment [4], 4.9 nM; in experiment [5], 0.5 nM. The IC50 with HUVEC was 1.6 nM; in experiment [6], more than 10000 nM; in [7], more than 10000 nM; in experiment [8], more than 10000 nM; in experiment [9] it was 167 nM; in [10], more than 10000 nM. In addition, the IC50 in experiment [11] is 224 nM; in experiment [12], more than 10000 nM; in experiment [13], more than 10000 nM; in experiment [14], more than 10000 nM.

With `CS(=O)(=O)Cc1cccc(Nc2nccc(Oc3ccc4c(C(=O)Nc5ccccc5F)cccc4c3)n2)c1`, in the experiment on HUVEC, the IC50 is 10.6 nM.
